The test has as its target T1, hSCN9A (Homo sapiens, UniProt Q15858).
T1 construct: expressed in transfected cells
The test is described as follows: Whole-cell patch-clamp electrophysiology (conventional or PatchXpress), HEK cells expressing hSCN9A, estimated IC-50. It counts as cell-based. Conditions: estimated IC-50, HEK cells expressing hSCN9A; class symbols or bounds; read-out: SCN9A EIC-50. The procedure:
Human Embryonic Kidney (HEK) cells were transfected with hSCN3A or hSCN9A constructs using lipofectamine reagent (Invitrogen), using standard techniques. Cells stably expressing the hSCN3A or hSCN9A constructs were identified by their resistance to G-418 (400 μg/ml). Clones were screened for expression using the whole-cell voltage-clamp technique. HEK cells stably transfected with hSCN3A or hSCN9A were maintained in DMEM medium supplemented with 10% heat-inactivated fetal bovine serum and 400 μg/ml G418 sulfate in an incubator at 37° C. with a humidified atmosphere of 10% CO2. For HTS, cells were harvested from flasks by trypsinization and replated in an appropriate multi-well plate (typically 96 or 384 wells/plate) such that confluence would be achieved within 24 hours of plating. For electrophysiological studies, cells were removed from the culture flask by brief trypsinization and replated at low density onto glass cover slips. Cells were typically used for electrophysiological experiments within 24 to 72 h after plating. Cover slips containing HEK cells expressing hSCN3A or hSCN9A were placed in a bath on the stage of an inverted microscope and perfused (approximately 1 ml/min) with extracellular solution of the following composition: 138 mM NaCl, 2 mM CaCl2, 5.4 mM KCl, 1 mM MgCl2, 10 mM glucose, and 10 mM HEPES, pH 7.4, with NaOH. […] All recordings were made at room temperature (22-24° C.) using AXOPATCH 200B amplifiers and PCLAMP software (Axon Instruments, Burlingame, Calif.) or PatchXpress 7000 hardware and associated software (Axon Instruments, Burlingame, Calif.). hSCN3A or hSCN9A currents in HEK cells were measured using the whole-cell configuration of the patch-clamp technique (Hamill et al., 1981). […] As a result, voltage errors were negligible and no correction was applied. Current records were acquired at 20 to 50 KHz and filtered at 5 to 10 KHz. HEK cells stably transfected with hSCN3A or hSCN9A were viewed under Hoffman contrast optics and placed in front of an array of flow pipes emitting either control or compound-containing extracellular solutions. All compounds were dissolved in dimethyl sulfoxide to make 10 mM stock solutions, which were then diluted into extracellular solution to attain the final concentrations desired. […] The voltage-dependence of inactivation was determined by applying a series of depolarizing prepulses (8 sec long in 10 mV increments) from a negative holding potential. The voltage was then immediately stepped to 0 mV to assess the magnitude of the sodium current. Currents elicited at 0 mV were plotted as a function of prepulse potential to allow estimation of the voltage midpoint of inactivation (V1/2). Cells were then voltage clamped at the empirically determined V1/2. Compounds were tested for their ability to inhibit hSCN3A or hSCN9A sodium channels by activating the channel with a 20 msec voltage step to 0 mV following an 8 second conditioning prepulse to the empirically determined V1-2 (Table B). Compound effect (% inhibition) was determined by difference in current amplitude before and after application of test compounds. […] In some cases electrophysiological assays were conducted with PatchXpress 7000 hardware and associated software (Molecular Devices Corp) (Table B). All assay buffers and solutions were identical to those used in conventional whole-cell voltage clamp experiments described above. hSCN3A or hSCN9A containing cells were grown as above to 50%-80% confluency and harvested by trypsinization. Trypsinized cells were washed and resuspended in extracellular buffer at a concentration of 1×10^6 cells/ml. The onboard liquid handling facility of the PatchXpress was used for dispensing cells and application of test compounds. Determination of the voltage midpoint of inactivation was as described for conventional whole-cell recordings. Cells were then voltage-clamped to the empirically determined V1/2 and current was activated by a 20 msec voltage step to 0 mV.

Molecules are shown by their SMILES. A value given as a limit tells only on which side of the number the result lay.

T1 sequence (Q15858 whole entry): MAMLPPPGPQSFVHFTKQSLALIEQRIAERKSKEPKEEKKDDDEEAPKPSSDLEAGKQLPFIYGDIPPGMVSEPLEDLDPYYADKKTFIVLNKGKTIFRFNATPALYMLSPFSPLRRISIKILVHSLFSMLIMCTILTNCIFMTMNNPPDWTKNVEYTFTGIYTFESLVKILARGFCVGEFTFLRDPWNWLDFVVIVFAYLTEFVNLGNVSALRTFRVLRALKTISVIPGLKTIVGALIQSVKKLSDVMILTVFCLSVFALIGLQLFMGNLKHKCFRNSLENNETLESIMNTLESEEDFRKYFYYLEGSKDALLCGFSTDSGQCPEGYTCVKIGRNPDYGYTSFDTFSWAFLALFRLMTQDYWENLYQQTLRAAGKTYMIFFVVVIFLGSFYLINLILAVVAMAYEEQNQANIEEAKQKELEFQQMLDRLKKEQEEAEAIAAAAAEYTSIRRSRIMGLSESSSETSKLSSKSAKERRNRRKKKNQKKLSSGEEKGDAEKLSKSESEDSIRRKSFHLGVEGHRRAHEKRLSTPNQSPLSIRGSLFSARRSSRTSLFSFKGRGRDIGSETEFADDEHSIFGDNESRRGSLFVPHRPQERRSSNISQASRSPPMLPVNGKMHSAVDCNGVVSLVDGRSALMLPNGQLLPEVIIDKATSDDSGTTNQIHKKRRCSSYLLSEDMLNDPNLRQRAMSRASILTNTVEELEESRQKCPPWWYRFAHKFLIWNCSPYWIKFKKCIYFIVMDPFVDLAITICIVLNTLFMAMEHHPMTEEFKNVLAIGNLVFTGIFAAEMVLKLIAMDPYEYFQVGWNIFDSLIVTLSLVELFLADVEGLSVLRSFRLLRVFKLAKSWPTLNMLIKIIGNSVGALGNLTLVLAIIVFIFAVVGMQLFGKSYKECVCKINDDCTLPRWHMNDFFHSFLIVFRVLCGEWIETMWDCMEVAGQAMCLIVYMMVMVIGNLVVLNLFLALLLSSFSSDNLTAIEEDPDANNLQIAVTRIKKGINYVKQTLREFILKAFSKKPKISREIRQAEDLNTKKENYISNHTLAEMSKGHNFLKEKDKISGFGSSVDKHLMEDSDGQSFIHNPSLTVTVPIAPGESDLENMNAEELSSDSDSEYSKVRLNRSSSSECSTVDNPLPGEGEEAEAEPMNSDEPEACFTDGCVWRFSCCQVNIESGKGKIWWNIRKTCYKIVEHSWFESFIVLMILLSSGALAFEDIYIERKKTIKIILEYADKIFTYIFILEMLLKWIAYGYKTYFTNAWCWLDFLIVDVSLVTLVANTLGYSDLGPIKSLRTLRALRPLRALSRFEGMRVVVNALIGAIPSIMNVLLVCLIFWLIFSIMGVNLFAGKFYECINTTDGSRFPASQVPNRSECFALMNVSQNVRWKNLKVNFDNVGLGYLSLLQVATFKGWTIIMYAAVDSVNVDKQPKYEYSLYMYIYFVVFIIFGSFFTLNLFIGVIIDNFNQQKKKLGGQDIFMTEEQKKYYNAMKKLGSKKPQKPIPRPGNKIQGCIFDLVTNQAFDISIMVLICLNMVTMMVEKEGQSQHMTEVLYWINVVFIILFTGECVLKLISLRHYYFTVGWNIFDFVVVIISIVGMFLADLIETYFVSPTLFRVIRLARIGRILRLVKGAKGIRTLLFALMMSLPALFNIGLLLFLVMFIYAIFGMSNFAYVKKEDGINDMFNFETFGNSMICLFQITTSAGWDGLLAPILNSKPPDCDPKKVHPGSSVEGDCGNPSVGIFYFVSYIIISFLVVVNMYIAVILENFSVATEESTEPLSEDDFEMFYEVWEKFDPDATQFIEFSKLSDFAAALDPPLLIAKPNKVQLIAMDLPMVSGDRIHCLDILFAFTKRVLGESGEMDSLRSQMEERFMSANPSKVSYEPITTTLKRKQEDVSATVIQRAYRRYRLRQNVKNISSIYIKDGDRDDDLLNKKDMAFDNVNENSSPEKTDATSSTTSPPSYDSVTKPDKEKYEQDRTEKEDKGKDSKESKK

As to `CC(C)(C)c1ccc(OCc2csc(Nc3ccc(S(=O)(=O)Nc4nccs4)c(F)c3)n2)cc1` [Compound 102, 4-(4-((4-tert-butylphenoxy)methyl)thiazol-2-ylamino)-2-fluoro-N-(thiazol-2-yl)benzenesulfonamide], the IC50 is under 2000 nM.

Consider `O=S(=O)(Nc1nccs1)c1ccc(Nc2nc(-c3ccc(Cl)cc3)cs2)cc1F` [Compound 104, 4-(4-(4-chlorophenyl)thiazol-2-ylamino)-2-fluoro-N-(thiazol-2-yl)benzenesulfonamide], for which the IC50 is over 1000 nM.

Take `O=S(=O)(Nc1nccs1)c1ccc(Nc2nc3ccccc3o2)cc1` [Compound 114, 4-(benzo[d]oxazol-2-ylamino)-N-(thiazol-2-yl)benzenesulfonamide]: the IC50 is 2000 to 10000 nM.

In the case of `CC(C)(C)c1csc(Nc2ccc(S(=O)(=O)Nc3nccs3)nc2)n1` [Compound 116, 5-(4-tert-butylthiazol-2-ylamino)-N-(thiazol-2-yl)pyridine-2-sulfonamide], the IC50 is over 1000 nM.

As to `O=S(=O)(Nc1nccs1)c1ccc(Nc2nc3ccccc3s2)cc1` [Compound 117, 4-(benzo[d]thiazol-2-ylamino)-N-(thiazol-2-yl)benzenesulfonamide], the IC50 was over 1000 nM.

Turning to `O=S(=O)(Nc1nccs1)c1ccc(Nc2nnc(Cc3ccc(Cl)cc3)o2)cc1` [Compound 118, 4-(5-(4-chlorobenzyl)-1,3,4-oxadiazol-2-ylamino)-N-(thiazol-2-yl)benzenesulfonamide], the IC50 was over 1000 nM.

On to `Cn1nc(Cc2ccc(Cl)cc2)c(C#N)c1Nc1ccc(S(=O)(=O)Nc2nccs2)cc1` [Compound 119, 4-(3-(4-chlorobenzyl)-4-cyano-1-methyl-1H-pyrazol-5-ylamino)-N-(thiazol-2-yl)benzenesulfonamide], for which the IC50 was 2000 to 10000 nM.

For the molecule `O=S(=O)(Nc1nccs1)c1ccc(Nc2nnc(Cc3ccc(Cl)cc3)s2)cc1` [Compound 120, 4-(5-(4-chlorobenzyl)-1,3,4-thiadiazol-2-ylamino)-N-(thiazol-2-yl)benzenesulfonamide], the IC50 is 2000 to 10000 nM.

On to `Cn1nc(Cc2ccc(Cl)cc2)c(C(N)=O)c1Nc1ccc(S(=O)(=O)Nc2nccs2)cc1` [Compound 121, 3-(4-chlorobenzyl)-1-methyl-5-(4-(N-thiazol-2-ylsulfamoyl)phenylamino)-1H-pyrazole-4-carboxamide], for which the IC50 was over 1000 nM.

In the case of `Cc1nn(C)c(Nc2ccc(S(=O)(=O)Nc3nccs3)cc2)c1-c1ccccc1` [Compound 122, 4-(1,3-dimethyl-4-phenyl-1H-pyrazol-5-ylamino)-N-(thiazol-2-yl)benzenesulfonamide], the IC50 is over 1000 nM.

On to `Cc1nn(C(C)(C)C)c(Nc2ccc(S(=O)(=O)Nc3nccs3)cc2)c1-c1ccccc1` [Compound 123, 4-(1-tert-butyl-3-methyl-4-phenyl-1H-pyrazol-5-ylamino)-N-(thiazol-2-yl)benzenesulfonamide], for which the IC50 is over 1000 nM.

For `Cc1n[nH]c(Nc2ccc(S(=O)(=O)Nc3nccs3)cc2)c1-c1ccccc1` [Compound 124, 4-(3-methyl-4-phenyl-1H-pyrazol-5-ylamino)-N-(thiazol-2-yl)benzenesulfonamide], the IC50 was over 1000 nM.

As to `Cn1nc(CC(C)(C)C)cc1Nc1ccc(S(=O)(=O)Nc2nccs2)cc1` [Compound 125, 4-(1-methyl-3-neopentyl-1H-pyrazol-5-ylamino)-N-(thiazol-2-yl)benzenesulfonamide], the IC50 was 2000 to 10000 nM.

With `COc1ccc(Cc2cc(Nc3ccc(S(=O)(=O)Nc4nccs4)cc3)n(C)n2)cc1` [Compound 126, 4-(3-(4-methoxybenzyl)-1-methyl-1H-pyrazol-5-ylamino)-N-(thiazol-2-yl)benzenesulfonamide], the IC50 is over 1000 nM.

Regarding `COc1ccccc1Cc1cc(Nc2ccc(S(=O)(=O)Nc3nccs3)cc2)n(C)n1` [Compound 127, 4-(3-(2-methoxybenzyl)-1-methyl-1H-pyrazol-5-ylamino)-N-(thiazol-2-yl)benzenesulfonamide], the IC50 is 2000 to 10000 nM.

For `Cc1cc(Nc2ccc(S(=O)(=O)Nc3nccs3)cc2)n(Cc2ccc(Cl)cc2)n1` [Compound 128, 4-(1-(4-chlorobenzyl)-3-methyl-1H-pyrazol-5-ylamino)-N-(thiazol-2-yl)benzenesulfonamide], the IC50 was 2000 to 10000 nM.

In the case of `Cc1cc(Nc2ccc(S(=O)(=O)Nc3nccs3)cc2)n(Cc2ccncc2)n1` [Compound 131, 4-(3-methyl-1-(pyridin-4-ylmethyl)-1H-pyrazol-5-ylamino)-N-(thiazol-2-yl)benzenesulfonamide], the IC50 is over 1000 nM.

Consider `Cc1cc(Nc2ccc(S(=O)(=O)Nc3nccs3)cc2)n(CC2CCCCC2)n1` [Compound 132, 4-(1-(cyclohexylmethyl)-3-methyl-1H-pyrazol-5-ylamino)-N-(thiazol-2-yl)benzenesulfonamide], for which the IC50 was over 1000 nM.

As for `O=C1CC(c2ccccc2)Cc2nc(Nc3ccc(S(=O)(=O)Nc4nccs4)cc3)sc21` (stereo not drawn) [Compound 135, 4-(7-oxo-5-phenyl-4,5,6,7-tetrahydrobenzo[d]thiazol-2-ylamino)-N-(thiazol-2-yl)benzenesulfonamide], the IC50 is over 1000 nM.

`CC1(C)CC(=O)c2sc(Nc3ccc(S(=O)(=O)Nc4nccs4)cc3)nc2C1` [Compound 136, 4-(5,5-dimethyl-7-oxo-4,5,6,7-tetrahydrobenzo[d]thiazol-2-ylamino)-N-(thiazol-2-yl)benzenesulfonamide]: the IC50 was over 1000 nM.

Take `Cc1cc(Nc2ccc(S(=O)(=O)Nc3nccs3)cc2)n(-c2ccc(Cl)cc2)n1` [Compound 137, 4-(1-(4-chlorophenyl)-3-methyl-1H-pyrazol-5-ylamino)-N-(thiazol-2-yl)benzenesulfonamide]: the IC50 is 2000 to 10000 nM.

As to `Cn1nc(Cc2ccc(C(F)(F)F)cc2)cc1Nc1ccc(S(=O)(=O)Nc2nccs2)cc1` [Compound 138, 4-(1-methyl-3-(4-(trifluoromethyl)benzyl)-1H-pyrazol-5-ylamino)-N-(thiazol-2-yl)benzenesulfonamide], the IC50 was under 2000 nM.

With `Cn1nc(Cc2ccc(F)cc2F)cc1Nc1ccc(S(=O)(=O)Nc2nccs2)cc1` [Compound 139, 4-(3-(2,4-difluorobenzyl)-1-methyl-1H-pyrazol-5-ylamino)-N-(thiazol-2-yl)benzenesulfonamide], the IC50 was under 2000 nM.

With `Cc1cc(Nc2ccc(S(=O)(=O)Nc3nccs3)c(F)c2)n(-c2ccc(Cl)cc2)n1` [Compound 140, 4-(1-(4-chlorophenyl)-3-methyl-1H-pyrazol-5-ylamino)-2-fluoro-N-(thiazol-2-yl)benzenesulfonamide], the IC50 is under 2000 nM.

For `Cn1nc(Cc2ccc(Cl)cc2)cc1Nc1ccc(S(=O)(=O)Nc2nccs2)c(F)c1` [Compound 141, 4-(3-(4-chlorobenzyl)-1-methyl-1H-pyrazol-5-ylamino)-2-fluoro-N-(thiazol-2-yl)benzenesulfonamide], the IC50 was under 2000 nM.

Turning to `Cn1nc(C2(c3ccc(Cl)cc3)CC2)cc1Nc1ccc(S(=O)(=O)Nc2nccs2)cc1F` [Compound 142, 4-(3-(1-(4-chlorophenyl)cyclopropyl)-1-methyl-1H-pyrazol-5-ylamino)-3-fluoro-N-(thiazol-2-yl)benzenesulfonamide], the IC50 was under 2000 nM.

On to `Cn1nc(Cc2ccc(Cl)cc2)cc1Nc1ccc(S(=O)(=O)Nc2nccs2)cc1F` [Compound 143, 4-(3-(4-chlorobenzyl)-1-methyl-1H-pyrazol-5-ylamino)-3-fluoro-N-(thiazol-2-yl)benzenesulfonamide], for which the IC50 is under 2000 nM.

The record behind these values is patent publication US8124610B2, “Sodium channel inhibitors” (Icagen Inc., priority 2007, dated 2012).
